Test results reported in publication PMC4324634, “Bioprospecting the American Alligator (Alligator mississippiensis) Host Defense Peptidome” (PLoS ONE, 2015).
Where two headings read alike, the source gives them in different places. Where no end group is shown, it is not given here.

Experiments:
[1] = system: Bacillus cereus (ATCC 11778)
Protocol: (§1) The third step in the CAMP-discovery process is the evaluation of the antimicrobial effectiveness of the newly identified peptides. The eight synthetic peptides were tested against a panel of Gram-positive and Gram-negative bacteria. These bacteria include Bacillus cereus, Staphylococcus aureus, Escherichia coli, and Pseudomonas aeruginosa. […] When incubated with live metabolically-active cells, the non-fluorescent blue dye resazurin is converted to the highly fluorescent pink resorufin, as a result of reduction by the cells. While bacteria can reduce resazurin via multiple metabolic processes, the rate of conversion and the corresponding increase in fluorescence are directly proportional to the number of living cells in the sample [19–21, 25]. Thus, fluorometric detection of the rate of resazurin conversion to resorufin at 530ex/590em allows for quantification of bacterial survival following exposure to antibacterial compounds, such as CAMPs.
(§2) Escherichia coli (ATCC 25922), Bacillus cereus (ATCC 11778), Pseudomonas aeruginosa (ATCC 9027), and Staphylococcus aureus (ATCC 25923) used in these studies were purchased from the American Type Culture Collection (Manassas, VA). Bacteria were grown following ATCC recommended protocols for each strain and frozen aliquots were prepared in 20% glycerol and stored at -80°C for further use.
(§3) Frozen enumerated bacterial aliquots were thawed on ice and mixed. For each strain, bacteria are diluted to 2 × 10^6 CFU/mL in sterile 10 mM sodium phosphate (pH 7.4) and added in 50 µL aliquots to the wells of a 96-well black microtiter plate (Greiner Bio-One 655201) containing 50 µL volumes of serially diluted CAMP, dissolved in the same phosphate buffer. Control wells contain bacteria with no peptide. The microtiter plate was incubated for 3 hours at 30°C (B. cereus) or 37°C for other strains. After three hours, 100 µL of PBS solution with dissolved resazurin and MHB was added to each well. The amount of resazurin and MHB that was added is bacterial strain dependent, with the final resazurin (µM)/ MHB (wt/vol) concentrations being 100 µM/ 0.2% (wt/vol) for E. coli, 12.5 µM/ 0.05% (wt/vol) for B. cereus, 25 µM/ 2.2% (wt/vol) for P. aerugoinsa, and 50 µM/ 2.2% (wt/vol) for S. aureus. The metabolic conversion of resazurin to resorufin is bacterial strain dependent and requires concentrations optimized for each species to achieve a high-throughput assessment. Following addition of resazurin/MHB buffer, the plate was immediately placed in either a SpectraMax Gemini EM plate-reading fluorimeter (E. coli and B. cereus) or a TeCan Safire 2 fluorimeter (S. aureus and P. aeruginosa) for incubation overnight at either 30°C (B. cereus) or 37°C (other strains) while monitoring fluorescence for each well.
(§4) Fluorescence data was collected from each well during the monitoring period using equations compiled by microplate data software (SoftMax Pro 4.5 or Magellen 6). Onset time of half maximal fluorescence (T0.5) was used for quantifying bacterial concentrations. Standard curves were generated in preliminary experiments using serially diluted bacterial suspensions (~10^6 CFU/mL- 10^3 CFU/mL) without CAMPs. […] Correlating bacterial CFU values for wells containing peptide with control wells containing no CAMPs it is possible to determine bacterial survival for wells containing CAMPs.

[2] = system: Escherichia coli (ATCC 25922)
Protocol: as §1, §2, §3, §4

[3] = system: Pseudomonas aeruginosa (ATCC 9027)
Protocol: as §1, §2, §3, §4

[4] = system: Staphylococcus aureus (ATCC 25923)
Protocol: as §1, §2, §3, §4

Molecule | EC50 ([1]; ATCC 11778, 3 h, pH 7.4) [µM] | EC50 ([2]; ATCC 25922, 3 h, pH 7.4) [µM] | EC50 ([3]; ATCC 9027, 3 h, pH 7.4) [µM] | EC50 ([4]; ATCC 25923, 3 h, pH 7.4) [µM] | EC50 ([1]; read-out: B. cereus EC50, B. cereus ATCC 11778, 2 × 10^6 CFU/mL stock mixed 1:1 with peptide in 10 mM sodium phosphate pH 7.4, 3 h at 30°C, resazurin fluorescence read-out (T0.5), triplicate, variable-slope sigmoidal fit) [µM] | EC50 ([2]; read-out: E. coli EC50, E. coli ATCC 25922, 2 × 10^6 CFU/mL stock mixed 1:1 with peptide in 10 mM sodium phosphate pH 7.4, 3 h at 37°C, resazurin fluorescence read-out (T0.5), triplicate, variable-slope sigmoidal fit) [µM] | EC50 ([3]; read-out: P. aeruginosa EC50, P. aeruginosa ATCC 9027, 2 × 10^6 CFU/mL stock mixed 1:1 with peptide in 10 mM sodium phosphate pH 7.4, 3 h at 37°C, resazurin fluorescence read-out (T0.5), triplicate, variable-slope sigmoidal fit) [µM] | EC50 ([4]; read-out: S. aureus EC50, S. aureus ATCC 25923, 2 × 10^6 CFU/mL stock mixed 1:1 with peptide in 10 mM sodium phosphate pH 7.4, 3 h at 37°C, resazurin fluorescence read-out (T0.5), triplicate, variable-slope sigmoidal fit) [µM]
VERIPLVRFKSIKKQLHERGDL [NOTS17–38] | – | – | – | 198 | – | – | – | –
KTRNWFSEHFKKVKEKLKDTFA [APOC1_67–88] | 0.21 | 0.151 | 0.948 | 7.08 | – | – | – | –
PPGASPRKKPRKQ [ASAP130LP] | – | – | – | 101 | – | – | – | –
CC[C@H](C)[C@H](NC(=O)[C@H](CCCCN)NC(=O)[C@H](CCC(=O)O)NC(=O)[C@H](CCCCN)NC(=O)[C@H](CO)NC(=O)[C@H](CCCCN)NC(=O)[C@H](CCCNC(=N)N)NC(=O)[C@H](Cc1ccccc1)NC(=O)[C@H](Cc1ccccc1)NC(=O)[C@H](CC(=O)O)NC(=O)CNC(=O)[C@H](CC(C)C)NC(=O)[C@@H](N)CC(C)C)C(=O)NCC(=O)N[C@@H](CCCCN)C(=O)N[C@@H](CCC(=O)O)C(=O)N[C@@H](Cc1ccccc1)C(=O)N[C@@H](CCCCN)C(=O)N[C@@H](CCCNC(=N)N)C(=O)N[C@H](C(=O)N[C@H](C(=O)N[C@@H](CCC(N)=O)C(=O)N[C@@H](CCCNC(=N)N)C(=O)N[C@H](C(=O)N[C@@H](CCCCN)C(=O)N[C@@H](CC(=O)O)C(=O)N[C@@H](Cc1ccccc1)C(=O)N[C@@H](CC(C)C)C(=O)N[C@@H](CCCNC(=N)N)C(=O)N[C@@H](CC(N)=O)C(=O)N[C@@H](CC(C)C)C(=O)N[C@H](C(=O)N1CCC[C@H]1C(=O)N[C@@H](CCCNC(=N)N)C(=O)N[C@H](C(=O)N[C@@H](CCC(=O)O)C(=O)N[C@@H](CO)C(=O)O)[C@@H](C)O)C(C)C)[C@@H](C)CC)C(C)C)[C@@H](C)CC [LL-37, reference compound] | – | – | – | – | 0.0287 | 0.00821 | 0.525 | 0.552
FSTKTRNWFSEHFKKVKEKLKDTFA [APOC1_64–88] | 0.245 | 0.192 | 1.41 | 9.66 | – | – | – | –

The next lines start with results.

EC50 ([1]; ATCC 11778, 3 h, pH 7.4) [µM] | EC50 ([2]; ATCC 25922, 3 h, pH 7.4) [µM] | EC50 ([3]; ATCC 9027, 3 h, pH 7.4) [µM] | EC50 ([4]; ATCC 25923, 3 h, pH 7.4) [µM] | Molecule | EC50 ([1]; read-out: B. cereus EC50, B. cereus ATCC 11778, 2 × 10^6 CFU/mL stock mixed 1:1 with peptide in 10 mM sodium phosphate pH 7.4, 3 h at 30°C, resazurin fluorescence read-out (T0.5), triplicate, variable-slope sigmoidal fit) [µM] | EC50 ([2]; read-out: E. coli EC50, E. coli ATCC 25922, 2 × 10^6 CFU/mL stock mixed 1:1 with peptide in 10 mM sodium phosphate pH 7.4, 3 h at 37°C, resazurin fluorescence read-out (T0.5), triplicate, variable-slope sigmoidal fit) [µM] | EC50 ([3]; read-out: P. aeruginosa EC50, P. aeruginosa ATCC 9027, 2 × 10^6 CFU/mL stock mixed 1:1 with peptide in 10 mM sodium phosphate pH 7.4, 3 h at 37°C, resazurin fluorescence read-out (T0.5), triplicate, variable-slope sigmoidal fit) [µM] | EC50 ([4]; read-out: S. aureus EC50, S. aureus ATCC 25923, 2 × 10^6 CFU/mL stock mixed 1:1 with peptide in 10 mM sodium phosphate pH 7.4, 3 h at 37°C, resazurin fluorescence read-out (T0.5), triplicate, variable-slope sigmoidal fit) [µM]
18.7 | 0.245 | 11.1 | 31.8 | KKTSMKIIPFTRL [FGG401–413] | – | – | – | –
9.35 | 0.332 | 7.02 | 2.84 | YSLKKTSMKIIPFTRL [FGG398–413] | – | – | – | –
